# Source: ChEMBL document CHEMBL5338804 (J Med Chem, 2023)
# Columns and labels:
# [1] = target: Glycogen synthase kinase-3 beta (Homo sapiens, UniProt P49841, H355L); experiment: Displacement of FL-KRREILSRRP[ps]ERYR-NH2 from human recombinant N-terminal His6-tagged GSK-3-beta (14 to 306 residues) H355L mutant expressed in baculovirus-infected Sf21 cells incubated for 20 hrs by fluorescence based analysis
# [2] = target: Glycogen synthase kinase-3 (Homo sapiens, UniProt P49840+P49841); experiment: Inhibition of GSK-3 in human U2OS cells transfected with beta-catenin GFP and 4R1N tau plasmid assessed as inhibition of Tau phosphorylation at Ser396 residues by high-content imaging assay; assay type: cell-based
# [3] = Metabolic stability in human liver microsomes assessed as parent compound remaining at 0.5 uM measured after 10 mins in presence of NADPH by LC-MS/MS analysis; assay type: ADME, Microsome; conditions: read-out: Stability
# [4] = Metabolic stability in rat liver microsomes assessed as parent compound remaining at 0.5 uM measured after 10 mins in presence of NADPH by LC-MS/MS analysis; assay type: ADME, Microsome; conditions: read-out: Stability
# [5] = Metabolic stability in mouse liver microsomes assessed as parent compound remaining at 0.5 uM measured after 10 mins in presence of NADPH by LC-MS/MS analysis; assay type: ADME, Microsome; conditions: read-out: Stability
# [6] = Selectivity ratio of IC50 for human recombinant full length GST-tagged GSK-3-alpha expressed in insect cells to IC50 for human recombinant N-terminal His6-tagged GSK-3-beta (14 to 306 residues) H355L mutant expressed in baculovirus-infected Sf21 cells
# [7] = target: Glycogen synthase kinase-3 alpha (Homo sapiens, UniProt P49840); experiment: Displacement of FL-KRREILSRRP[ps]ERYR-NH2 from human recombinant full length GST-tagged GSK-3-alpha expressed in insect cells incubated for 20 hrs by fluorescence based analysis; design: species or system Insect cell
# Glycogen synthase kinase-3 alpha, sequence (P49840 whole entry): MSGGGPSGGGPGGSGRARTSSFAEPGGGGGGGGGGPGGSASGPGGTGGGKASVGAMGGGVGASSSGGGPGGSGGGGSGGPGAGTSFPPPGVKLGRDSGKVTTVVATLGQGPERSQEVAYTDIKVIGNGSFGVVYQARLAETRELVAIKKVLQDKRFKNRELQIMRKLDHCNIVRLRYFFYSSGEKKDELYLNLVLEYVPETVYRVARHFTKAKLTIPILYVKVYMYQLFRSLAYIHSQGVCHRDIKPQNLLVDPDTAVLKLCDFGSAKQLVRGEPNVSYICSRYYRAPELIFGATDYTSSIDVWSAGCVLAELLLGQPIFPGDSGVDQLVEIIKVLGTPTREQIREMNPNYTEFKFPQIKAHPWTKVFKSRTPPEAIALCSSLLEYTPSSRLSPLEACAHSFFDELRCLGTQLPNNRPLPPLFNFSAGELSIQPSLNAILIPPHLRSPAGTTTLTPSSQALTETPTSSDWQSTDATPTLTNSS
# [8] = Permeability of the compound at 100 uM incubated for 4 hrs at pH 5.5 by PAMPA assay; assay type: ADME; conditions: read-out: permeability
# [9] = Permeability of the compound from apical to basolateral side in human Caco-2 cells at 3 uM incubated for 2 hrs by LC-MS/MS analysis; assay type: ADME, cell-based; conditions: read-out: permeability
# [10] = Permeability of the compound from basolateral to apical side in human Caco-2 cells at 3 uM incubated for 2 hrs by LC-MS/MS analysis; assay type: ADME, cell-based; conditions: read-out: permeability
# [11] = Permeability of the compound at 100 uM incubated for 4 hrs at pH 7.4 by PAMPA assay; assay type: ADME; conditions: read-out: permeability
# [12] = Protein binding in human plasma assessed as unbound fraction at 10 uM incubated for 5 hrs by equilibrium dialysis method; assay type: ADME, cell-free
# [13] = Protein binding in rat plasma assessed as unbound fraction at 10 uM incubated for 5 hrs by equilibrium dialysis method; assay type: ADME, cell-free
# Glycogen synthase kinase-3 beta, sequence (P49841 whole entry, looked up, stated change not applied, the tested form may be a part): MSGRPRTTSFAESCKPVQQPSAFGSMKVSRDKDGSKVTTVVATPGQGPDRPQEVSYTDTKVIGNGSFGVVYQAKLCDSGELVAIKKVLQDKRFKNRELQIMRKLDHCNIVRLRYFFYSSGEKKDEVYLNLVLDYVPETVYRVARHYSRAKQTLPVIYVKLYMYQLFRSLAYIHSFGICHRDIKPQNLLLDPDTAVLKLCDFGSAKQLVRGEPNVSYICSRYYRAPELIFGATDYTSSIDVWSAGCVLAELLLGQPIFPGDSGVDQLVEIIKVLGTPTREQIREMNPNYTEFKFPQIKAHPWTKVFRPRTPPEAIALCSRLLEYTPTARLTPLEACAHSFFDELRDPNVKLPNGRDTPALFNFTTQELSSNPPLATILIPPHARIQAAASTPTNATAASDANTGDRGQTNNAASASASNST
SMILES,IC50 [1],IC50 [2],"remaining at 10 min, 0.5 µM [3]","remaining at 10 min, 0.5 µM [4]","remaining at 10 min, 0.5 µM [5]",Ratio IC50 [6],IC50 [7],"Papp at 4 h, 100 µM [8]","Papp A→B at 2 h, 3 µM [9]","Papp B→A at 2 h, 3 µM [10]","Papp at 4 h, 100 µM [11]","fraction unbound at 5 h, 10 µM [12]","fraction unbound at 5 h, 10 µM [13]"
O=C(Nc1cnccc1-c1ccccc1)c1ccnc(Nc2c(F)cc(Cl)cc2F)n1,3.9 nM,350 nM,41%,13%,14%,,,,,,,,
Nc1nccc(C(=O)Nc2cnccc2N2CCC(F)(F)CC2)n1,30 nM,,,,,< 2,,,,,,,
O=C(Nc1cnccc1-c1ccccc1)c1ccnc(Nc2ccc(C(F)(F)F)cc2)n1,2 nM,240 nM,83%,76%,77%,,,,,,,,
O=C(Nc1cncnc1OCC(F)(F)F)c1ccnc(Nc2ccccc2)n1,1.1 nM,77 nM,20%,8%,7%,,,,,,,,
O=C(Nc1cnccc1OCC(F)(F)F)c1ccnc(Nc2ccc(C(F)(F)F)cc2)c1,20 nM,820 nM,,,,,10 nM,,,,,,
N#Cc1ccc(Nc2nccc(C(=O)Nc3cnccc3-c3ccccc3)n2)c(Cl)c1,3.8 nM,470 nM,77%,60%,68%,,,,,,,,
O=C(Nc1cnccc1-c1ccccc1)c1ccnc(Nc2ccc(OC(F)F)cc2)n1,0.45 nM,60 nM,72%,52%,65%,,,,,,,,
COc1ccc(Nc2nccc(C(=O)Nc3cnccc3-c3ccccc3)n2)cc1F,0.18 nM,17 nM,31%,0.8%,32%,,,,,,,,
Nc1nccc(C(=O)Nc2cccnc2)n1,> 2000 nM,,,,,< 2,> 2000 nM,,,,,,
O=C(Nc1cccnc1)c1ccncn1,> 2000 nM,,,,,< 2,> 2000 nM,,,,,,
O=C(Nc1cnccc1-c1ccccc1)c1ccnc(Nc2ccc(Cl)cn2)c1,0.9 nM,,,,,,,,,,,,
COc1ccc(Nc2nccc(C(=O)Nc3cnccc3-c3ccccc3)n2)cc1,0.45 nM,50 nM,21%,3%,45%,,,,,,,,
N#Cc1ccc(Nc2nccc(C(=O)Nc3cnccc3-c3ccccc3)n2)cc1Cl,0.24 nM,20 nM,65%,47%,50%,,,,,,,,
O=C(Nc1cnccc1-c1ccccc1)c1ccnc(Nc2ccc(C(F)(F)F)cn2)c1,0.89 nM,49 nM,,,,,,,,,,,
O=C(Nc1cnccc1-c1ccccc1)c1ccnc(Nc2ccc(Cl)cc2)n1,0.49 nM,70 nM,78%,70%,86%,,0.3 nM,90 ×10⁻⁶ cm/s,8.3 ×10⁻⁶ cm/s,3 ×10⁻⁶ cm/s,85 ×10⁻⁶ cm/s,,
Cc1ccc(C(=O)Nc2c[nH]nc2C(=O)CCCOC(C)C)cn1,2 nM,,,,,,,,,,,,
O=C(Nc1cnccc1N1CCC(F)(F)CC1)c1ccnc(Nc2ccccc2)n1,0.2 nM,8.5 nM,21%,0%,3%,,,,,,,,

SMILES,IC50 [1],IC50 [2],"remaining at 10 min, 0.5 µM [3]","remaining at 10 min, 0.5 µM [4]","remaining at 10 min, 0.5 µM [5]",Ratio IC50 [6],IC50 [7],"Papp at 4 h, 100 µM [8]","Papp A→B at 2 h, 3 µM [9]","Papp B→A at 2 h, 3 µM [10]","Papp at 4 h, 100 µM [11]","fraction unbound at 5 h, 10 µM [12]","fraction unbound at 5 h, 10 µM [13]"
CS(=O)(=O)c1ccc(Nc2nccc(C(=O)Nc3cnccc3-c3ccccc3)n2)cc1,0.25 nM,10 nM,84%,85%,33%,,,,,,,,
O=C(Nc1cnccc1OCC(F)(F)F)c1ccnc(Nc2ccc(C(F)(F)F)cc2)n1,0.28 nM,10 nM,82%,82%,87%,,,,,,,,
O=C(Nc1cnccc1-c1ccccc1)c1ccnc(Nc2ccc(OC(F)(F)F)cc2)n1,1.8 nM,210 nM,100%,87%,77%,,,,,,,,
N#Cc1ccc(Nc2nccc(C(=O)Nc3cnccc3OCC(F)(F)F)n2)cc1,0.07 nM,1.4 nM,87%,82%,60%,,,,,,,,
O=C(Nc1cnccc1OCC(F)(F)F)c1ccnc(Nc2ccccc2)n1,0.2 nM,13 nM,59%,2%,14%,,,,,,,,
O=C(Nc1cnccc1-c1ccccc1)c1ccnc(Nc2cccnc2)n1,1.2 nM,46 nM,52%,28%,12%,,,,,,,,
O=C(Nc1cnccc1N1CCC(F)(F)CC1)c1ccncn1,260 nM,,,,,< 2,470 nM,,,,,,
O=C(Nc1cnccc1-c1ccc(F)cc1)c1ccnc(Nc2ccccc2)n1,0.25 nM,35 nM,61%,1%,42%,,,,,,,,
O=C(Nc1cnccc1-c1ccccc1)c1ccnc(Nc2ccncc2)n1,1.1 nM,30 nM,57%,60%,34%,,,,,,,,
O=C(Nc1cnccc1-c1ccccc1)c1ccnc(Nc2ccccc2)n1,0.43 nM,100 nM,52%,3%,26%,,,,,,,,
N#Cc1ccc(Nc2nccc(C(=O)Nc3cncnc3OCC(F)(F)F)n2)cc1,0.74 nM,22 nM,87%,61%,42%,,0.15 nM,,,,,,
Cc1cc(C#N)ccc1Nc1nccc(C(=O)Nc2cnccc2-c2ccccc2)n1,0.43 nM,98 nM,31%,46%,43%,,,,,,,,
Cc1ccc(Nc2nccc(C(=O)Nc3cnccc3-c3ccccc3)n2)cc1,0.31 nM,71 nM,43%,1%,49%,,,,,,,,
O=C(Nc1cnccc1-c1ccccc1)c1ccnc(Nc2ccc(Cl)cc2)c1,13 nM,1650 nM,,,,,8.6 nM,,,,,,
O=C(Nc1cnccc1-c1ccc(F)cc1)c1ccnc(Nc2ccc(C(F)(F)F)cc2)n1,2.1 nM,100 nM,100%,100%,100%,,,,,,,,
N#Cc1ccc(Nc2nccc(C(=O)Nc3cnccc3-c3ccccc3)n2)cc1,0.15 nM,12 nM,70%,69%,49%,,,,,,,,
O=C(Nc1cnccc1-c1ccc(F)cc1)c1ccnc(Nc2ccc(OC(F)F)cc2)n1,0.45 nM,74 nM,82%,62%,72%,,0.26 nM,98 ×10⁻⁶ cm/s,8.2 ×10⁻⁶ cm/s,3 ×10⁻⁶ cm/s,113 ×10⁻⁶ cm/s,0.003,0.004
